# Data as given in US11123337B2, “4-methylsulfonyl-substituted piperidine urea compounds” (MYOKARDIA, INC., priority 2015, dated 2021).
# Target: bovine cardiac myosin (Bos taurus, UniProt Q9BE39)
# Test: Myosin activation assay (PK/LDH-coupled ATPase, bovine cardiac myofibrils)
# Format: biochemical
# Settings: AC20 = concentration at which total response is increased by twenty percent
# Outline: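 Skinned bovine cardiac myofibrils (1 mg/mL) in PIPES/MgCl2 buffer pH 6.8 at free Ca2+ giving ~50% (pCa ~6) or <5% (pCa 10) activation, with 50 μM ATP and 3.3% DMSO. ATPase rate from NADH absorbance at 340 nm (PK/LDH coupling) over 15 min at ambient temperature. AC20/AC50 from a four-parameter fit of DMSO-normalised rates.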
# bovine cardiac myosin, sequence (Q9BE39 whole entry): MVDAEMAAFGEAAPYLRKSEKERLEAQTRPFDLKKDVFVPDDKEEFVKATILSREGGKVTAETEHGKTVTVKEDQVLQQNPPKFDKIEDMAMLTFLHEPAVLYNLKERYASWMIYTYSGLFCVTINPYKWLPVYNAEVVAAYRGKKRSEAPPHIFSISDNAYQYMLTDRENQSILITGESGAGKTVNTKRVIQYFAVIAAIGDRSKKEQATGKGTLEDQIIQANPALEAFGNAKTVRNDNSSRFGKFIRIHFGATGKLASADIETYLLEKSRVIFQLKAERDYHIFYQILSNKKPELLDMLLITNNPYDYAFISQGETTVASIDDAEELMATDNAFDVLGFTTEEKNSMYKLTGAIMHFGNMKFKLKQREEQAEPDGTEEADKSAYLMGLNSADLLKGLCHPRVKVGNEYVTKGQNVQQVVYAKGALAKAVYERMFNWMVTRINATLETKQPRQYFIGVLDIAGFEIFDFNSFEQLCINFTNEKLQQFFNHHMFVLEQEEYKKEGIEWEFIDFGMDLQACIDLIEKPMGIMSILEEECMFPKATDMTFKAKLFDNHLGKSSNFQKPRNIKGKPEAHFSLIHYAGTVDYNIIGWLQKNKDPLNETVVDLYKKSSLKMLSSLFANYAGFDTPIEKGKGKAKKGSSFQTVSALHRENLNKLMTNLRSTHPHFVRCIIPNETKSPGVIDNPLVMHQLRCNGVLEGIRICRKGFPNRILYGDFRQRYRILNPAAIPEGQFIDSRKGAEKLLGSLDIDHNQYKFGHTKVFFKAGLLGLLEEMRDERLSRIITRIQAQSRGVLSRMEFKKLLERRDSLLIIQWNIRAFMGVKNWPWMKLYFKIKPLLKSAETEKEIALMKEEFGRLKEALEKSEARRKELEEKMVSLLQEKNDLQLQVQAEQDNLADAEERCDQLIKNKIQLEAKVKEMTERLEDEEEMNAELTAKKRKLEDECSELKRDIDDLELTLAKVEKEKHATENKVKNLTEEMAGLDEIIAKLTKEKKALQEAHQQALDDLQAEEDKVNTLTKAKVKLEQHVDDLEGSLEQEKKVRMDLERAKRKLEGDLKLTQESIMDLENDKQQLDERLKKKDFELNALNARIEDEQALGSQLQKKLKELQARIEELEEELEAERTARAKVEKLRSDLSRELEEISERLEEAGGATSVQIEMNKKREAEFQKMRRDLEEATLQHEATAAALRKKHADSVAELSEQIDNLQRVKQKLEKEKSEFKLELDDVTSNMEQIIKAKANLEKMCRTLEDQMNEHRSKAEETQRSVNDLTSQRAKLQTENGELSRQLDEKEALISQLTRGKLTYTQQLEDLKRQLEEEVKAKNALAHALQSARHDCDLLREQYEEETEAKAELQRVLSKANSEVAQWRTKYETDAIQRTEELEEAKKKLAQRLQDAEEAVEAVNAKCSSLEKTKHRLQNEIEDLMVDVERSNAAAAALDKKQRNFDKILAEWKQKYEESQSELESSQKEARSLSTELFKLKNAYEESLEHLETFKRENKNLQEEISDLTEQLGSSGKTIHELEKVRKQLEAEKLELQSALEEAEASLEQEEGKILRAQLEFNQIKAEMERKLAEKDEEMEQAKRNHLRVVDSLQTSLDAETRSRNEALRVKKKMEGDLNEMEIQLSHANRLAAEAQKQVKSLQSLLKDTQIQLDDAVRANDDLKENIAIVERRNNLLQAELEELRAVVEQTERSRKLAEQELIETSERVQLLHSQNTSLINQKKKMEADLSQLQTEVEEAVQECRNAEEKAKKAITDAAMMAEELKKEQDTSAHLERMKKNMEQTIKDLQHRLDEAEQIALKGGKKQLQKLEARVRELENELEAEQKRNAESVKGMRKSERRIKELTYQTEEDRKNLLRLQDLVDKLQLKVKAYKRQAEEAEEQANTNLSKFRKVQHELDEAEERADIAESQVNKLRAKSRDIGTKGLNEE
# bovine cardiac myosin, sequence (P85100 whole entry partner): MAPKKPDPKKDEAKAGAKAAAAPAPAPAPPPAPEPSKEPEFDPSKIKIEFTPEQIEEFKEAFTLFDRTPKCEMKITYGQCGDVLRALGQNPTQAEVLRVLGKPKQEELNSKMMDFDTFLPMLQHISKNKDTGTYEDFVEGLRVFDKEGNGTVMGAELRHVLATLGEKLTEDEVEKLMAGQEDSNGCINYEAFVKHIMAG
# bovine cardiac myosin, sequence (Q3SZE5 whole entry partner): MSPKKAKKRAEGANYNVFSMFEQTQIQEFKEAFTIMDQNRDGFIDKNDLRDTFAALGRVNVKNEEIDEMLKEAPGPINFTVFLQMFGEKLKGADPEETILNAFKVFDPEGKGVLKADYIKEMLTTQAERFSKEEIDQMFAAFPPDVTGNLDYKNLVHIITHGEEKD
row,SMILES,Myosin Activation (AC20)
1,"Cn1cnc(S(=O)(=O)C(C)(C)C2CCN(C(=O)Nc3ccnnc3)CC2)c1 [Compound 172, 4-(2-((1-methyl-1H-imidazol-4-yl)sulfonyl)propan-2-yl)-N-(pyridazin-4-yl)piperidine-1-carboxamide]",+ (+ represents myosin activation value AC20 > 5 μM)
2,"CC(C)(C1CCN(C(=O)Nc2ccnnc2)CC1)S(=O)(=O)c1ccccc1C#N [Compound 204, 4-(2-((2-cyanophenyl)sulfonyl)propan-2-yl)-N-(pyridazin-4-yl)piperidine-1-carboxamide]",+ (+ represents myosin activation value AC20 > 5 μM)
3,"CC(C)(C1CCN(C(=O)Nc2ccnnc2)CC1)S(=O)(=O)c1ccc(C(F)(F)F)nc1 [Compound 171, N-(pyridazin-4-yl)-4-(2-((6-(trifluoromethyl)pyridin-3-yl)sulfonyl)propan-2-yl)piperidine-1-carboxamide]",++ (++ represents myosin activation value AC20 from 2 μM-5 μM)
4,"Cc1cc(S(=O)(=O)C(C)(C)C2CCN(C(=O)Nc3cnns3)CC2)n(C)n1 [Compound 188, 4-(2-((1,3-dimethyl-1H-pyrazol-5-yl)sulfonyl)propan-2-yl)-N-(1,2,3-thiadiazol-5-yl)piperidine-1-carboxamide]",+++ (+++ represents myosin activation value AC20 < 2 μM)
5,"C[C@@H](O)c1cc(NC(=O)N2CCC(C(F)(F)S(=O)(=O)c3cccc(F)c3)CC2)ccn1 [Compound 98, (R)-4-(difluoro((3-fluorophenyl)sulfonyl)methyl)-N-(2-(1-hydroxyethyl)pyridin-4-yl)piperidine-1-carboxamide]",+ (+ represents myosin activation value AC20 > 5 μM)
6,"O=C(Nc1ccnnc1)N1CCC(C2(S(=O)(=O)c3cccc(F)c3)CCC2)CC1 [Compound 43, 4-(1-((3-fluorophenyl)sulfonyl)cyclobutyl)-N-(pyridazin-4-yl)piperidine-1-carboxamide]",+++ (+++ represents myosin activation value AC20 < 2 μM)
7,"O=C(Nc1ccnnc1)N1CCC(C(F)(F)S(=O)(=O)c2ccc(O)nc2)CC1 [Compound 88, 4-(difluoro((6-hydroxypyridin-3-yl)sulfonyl)methyl)-N-(pyridazin-4-yl)piperidine-1-carboxamide]",+ (+ represents myosin activation value AC20 > 5 μM)
8,"CC(F)(C1CCN(C(=O)Nc2cccnc2)CC1)S(=O)(=O)c1cccc(F)c1 (stereo not shown) [Compound 224, 4-(1-fluoro-1-((3-fluorophenyl)sulfonyl)ethyl)-N-(pyridin-3-yl)piperidine-1-carboxamide]",++ (++ represents myosin activation value AC20 from 2 μM-5 μM)
9,"CC(F)(C1CCN(C(=O)Nc2ccnnc2)CC1)S(=O)(=O)c1ccccc1Cl (stereo not shown) [Compound 263, 4-(1-((2-chlorophenyl)sulfonyl)-1-fluoroethyl)-N-(pyridazin-4-yl)piperidine-1-carboxamide]",+++ (+++ represents myosin activation value AC20 < 2 μM)
10,"Cc1cc(S(=O)(=O)C(C)(C)C2CCN(C(=O)Nc3ccncc3)CC2)n(C)n1 [Compound 186, 4-(2-((1,3-dimethyl-1H-pyrazol-5-yl)sulfonyl)propan-2-yl)-N-(pyridin-4-yl)piperidine-1-carboxamide]",+++ (+++ represents myosin activation value AC20 < 2 μM)
11,"Cc1cc(C#N)ccc1S(=O)(=O)C(F)(F)C1CCN(C(=O)Nc2ccnnc2)CC1 [Compound 52, 4-(((4-cyano-2-methylphenyl)sulfonyl)difluoromethyl)-N-(pyridazin-4-yl)piperidine-1-carboxamide]",++ (++ represents myosin activation value AC20 from 2 μM-5 μM)
12,"Cc1ccc(NC(=O)N2CCC(C(F)(F)S(=O)(=O)c3cn(C)nc3C(F)F)CC2)cn1 [Compound 80, 4-(((3-(difluoromethyl)-1-methyl-1H-pyrazol-4-yl)sulfonyl)difluoromethyl)-N-(6-methylpyridin-3-yl)piperidine-1-carboxamide]",+ (+ represents myosin activation value AC20 > 5 μM)
13,"CC(C)(C1(O)CCN(C(=O)Nc2ccnnc2)CC1)S(=O)(=O)c1cccc(F)c1 [Compound 163, 4-(2-((3-fluorophenyl)sulfonyl)propan-2-yl)-4-hydroxy-N-(pyridazin-4-yl)piperidine-1-carboxamide]",+ (+ represents myosin activation value AC20 > 5 μM)
14,"Cn1cc(S(=O)(=O)C(C)(C)C2CCN(C(=O)Nc3ccncc3)CC2)cn1 [Compound 198, 4-(2-((1-methyl-1H-pyrazol-4-yl)sulfonyl)propan-2-yl)-N-(pyridin-4-yl)piperidine-1-carboxamide]",+ (+ represents myosin activation value AC20 > 5 μM)
15,"Cn1cc(S(=O)(=O)C(C)(C)C2CCN(C(=O)Nc3cnoc3)CC2)c(C(F)F)n1 [Compound 157, 4-(2-((3-(difluoromethyl)-1-methyl-1H-pyrazol-4-yl)sulfonyl)propan-2-yl)-N-(isoxazol-4-yl)piperidine-1-carboxamide]",+++ (+++ represents myosin activation value AC20 < 2 μM)
16,"Cn1nccc1S(=O)(=O)C(F)(F)C1CCN(C(=O)Nc2ccnnc2)CC1 [Compound 94, 4-(difluoro((1-methyl-1H-pyrazol-5-yl)sulfonyl)methyl)-N-(pyridazin-4-yl)piperidine-1-carboxamide]",+ (+ represents myosin activation value AC20 > 5 μM)
17,"Cn1nccc1S(=O)(=O)C1(C2CCN(C(=O)Nc3ccnnc3)CC2)CCC1 [Compound 174, 4-(1-((1-methyl-1H-pyrazol-5-yl)sulfonyl)cyclobutyl)-N-(pyridazin-4-yl)piperidine-1-carboxamide]",+++ (+++ represents myosin activation value AC20 < 2 μM)
18,"O=C(Nc1cncs1)N1CCC(CS(=O)(=O)c2cccc(F)c2)CC1 [Compound 36, 4-(((3-fluorophenyl)sulfonyl)methyl)-N-(thiazol-5-yl)piperidine-1-carboxamide]",+ (+ represents myosin activation value AC20 > 5 μM)
19,"Cn1cc(NC(=O)N2CCC(C(C)(C)S(=O)(=O)c3cccc(F)c3)CC2)cn1 [Compound 139, 4-(2-((3-fluorophenyl)sulfonyl)propan-2-yl)-N-(1-methyl-1H-pyrazol-4-yl)piperidine-1-carboxamide]",+ (+ represents myosin activation value AC20 > 5 μM)
20,"CC(C)(C1CCN(C(=O)Nc2ccon2)CC1)S(=O)(=O)c1cccc(C#N)c1 [Compound 112, 4-(2-((3-cyanophenyl)sulfonyl)propan-2-yl)-N-(isoxazol-3-yl)piperidine-1-carboxamide]",++ (++ represents myosin activation value AC20 from 2 μM-5 μM)
21,"Cn1cncc1S(=O)(=O)C(C)(C)C1CCN(C(=O)Nc2ccnnc2)CC1 [Compound 148, 4-(2-((1-methyl-1H-imidazol-5-yl)sulfonyl)propan-2-yl)-N-(pyridazin-4-yl)piperidine-1-carboxamide]",+ (+ represents myosin activation value AC20 > 5 μM)
22,"O=C(Nc1ccnnc1)N1CCC(C2(S(=O)(=O)c3ccc(OC(F)(F)F)cc3)CC2)CC1 [Compound 205, N-(pyridazin-4-yl)-4-(1-((4-(trifluoromethoxy)phenyl)sulfonyl)cyclopropyl)piperidine-1-carboxamide]",+++ (+++ represents myosin activation value AC20 < 2 μM)
23,"CC(F)(C1CCN(C(=O)Nc2ccnnc2)CC1)S(=O)(=O)c1ccccc1C#N (stereo not shown) [Compound 56, 4-(1-((2-cyanophenyl)sulfonyl)-1-fluoroethyl)-N-(pyridazin-4-yl)piperidine-1-carboxamide]",+++ (+++ represents myosin activation value AC20 < 2 μM)
24,"Cc1ccc(NC(=O)N2CCC(C(C)(C)S(=O)(=O)c3cn(C)nc3C(F)F)CC2)cn1 [Compound 155, 4-(2-((3-(difluoromethyl)-1-methyl-1H-pyrazol-4-yl)sulfonyl)propan-2-yl)-N-(6-methylpyridin-3-yl)piperidine-1-carboxamide]",++ (++ represents myosin activation value AC20 from 2 μM-5 μM)
25,"Cn1cc(S(=O)(=O)[C@](C)(F)C2CCN(C(=O)Nc3ccc(F)nc3)CC2)c(C(F)F)n1 [Compound 257, (S)-4-(1-((3-(difluoromethyl)-1-methyl-1H-pyrazol-4-yl)sulfonyl)-1-fluoroethyl)-N-(6-fluoropyridin-3-yl)piperidine-1-carboxamide]",+ (+ represents myosin activation value AC20 > 5 μM)
26,"C[C@@](F)(C1CCN(C(=O)Nc2ccc(C#N)nc2)CC1)S(=O)(=O)c1cccc(F)c1 [Compound 291, (S)-N-(6-cyanopyridin-3-yl)-4-(1-fluoro-1-((3-fluorophenyl)sulfonyl)ethyl)piperidine-1-carboxamide]",+ (+ represents myosin activation value AC20 > 5 μM)
27,"CC(C)(C1CCN(C(=O)Nc2ccc(F)nc2)CC1)S(=O)(=O)c1cccc(F)c1 [Compound 152, 4-(2-((3-fluorophenyl)sulfonyl)propan-2-yl)-N-(6-fluoropyridin-3-yl)piperidine-1-carboxamide]",++ (++ represents myosin activation value AC20 from 2 μM-5 μM)
28,"CC(F)(C1CCN(C(=O)Nc2ccon2)CC1)S(=O)(=O)c1ccc(C#N)cc1 (stereo not shown) [Compound 283, 4-(1-((4-cyanophenyl)sulfonyl)-1-fluoroethyl)-N-(isoxazol-3-yl)piperidine-1-carboxamide]",++ (++ represents myosin activation value AC20 from 2 μM-5 μM)
